Test results as given in US20240182549A1, “PEPTIDES AND ANTIBODY FUSIONS THAT BIND TO SARS-COV-2 AND METHODS OF USING SAME” (priority 2021, published 2024).
Entries after “also recorded” stand apart in the source; their conditions may differ. Ends that are not written are not given here.

Key:
SARS-CoV-2 RBD (RBD-Fc) = SARS-CoV-2 RBD (RBD-Fc) (Severe acute respiratory syndrome coronavirus 2, UniProt P0DTC2)
[1] = test system: SARS-CoV-2 strain 2019 n-CoV/USA_WA1/2020; assay type: cell-based
[2] = test system: SARS-CoV-2 S protein pseudotyped virus-like particles; assay type: cell-based
[3] = test system: B.1.1.529 (Omicron) S protein RBD; assay type: binding, SARS-CoV-2

Row | Substance | binding of peptide-phage to RBD (in words) (SARS-CoV-2 RBD (RBD-Fc)) | improvement in 15033 neutralization efficiency (in words) [1] | neutralization potency compared to parent IgG (in words) [2] | potency compared to 15033 parental (in words) [1] | EC50 of phage-displayed peptide (SARS-CoV-2 RBD (RBD-Fc)) [A268 nm absorbance units] | binding to omicron RBD (in words) [3]
1 | p16 (DFDFAENWMEQLKVML; not fully specified) | no measurable interaction | most marked improvement | marked improvement in neutralization potency | – | – | –
2 | p96 (TAYECFQFPEWSCESE; not fully specified; cysteine pairing not given here) | no measurable interaction | – | – | no apparent improvement in potency; also recorded: decreased potency | – | –
3 | p102 (ECWEWSYQLQEWSPCP; not fully specified; cysteine pairing not given here) | bound | second best | marked improvement in neutralization potency | – | 0.04 | equivalent binding efficiency
